This is an account of results in patent publication US11203598B2, “Compounds for repressing cancer cell growth” (Institute For Cancer Research, priority 2018, dated 2021).

For data set [1], the system named is p53 pathway proteins in DLD-1 cells. Nature of the data set: Western blot of p53 targets and LC3B. Format: cell-based, human. To be noted: DLD-1, 24 hours. Here is the method:
(§1) After treatment, cells were harvested by trypsinization, washed with PBS, and lysed with RIPA buffer (Sigma-Aldrich) for 30 minutes to 1 hour at 4° C. Protein lysates were spun down and supernatant was collected. Protein quantification was performed using a Pierce™ BCA Protein Assay Kit (Thermo Fisher Scientific). 1×NuPAGE® LDS sample buffer (Thermo Fisher Scientific) and 2-Mercaptoethanol as the reducing agent (Sigma-Aldrich) were added to protein lysates, followed by boiling for 15 minutes at 95° C. Equal total protein amounts samples were loaded into NuPAGE™ Novex™ 4-12% Bis-Tris Protein Gels (1.5 mm, Thermo Fisher Scientific) and gel eletrophoresis was performed with NuPAGE™ MES SDS Running Buffer. Proteins were transferred onto an Immobilon-P membrane (PVDF, EMD Millipore) using a Bio-Rad system with a 10% Tris-Glycine and 10% methanol transfer buffer diluted in distilled and deionized water. After transfer, membranes were blocked with 10% milk in TBST solution and then incubated overnight with primary antibody, washed with TBST and incubated with secondary antibody for 1 hour. Incubations were performed in 5% milk in TBST solution. Signal was detected by using a chemiluminescent detection kit, followed by autoradiography. The following antibodies were used: p53 (DO-1, 1:1000, Santa Cruz), p73 (1:1000, Bethyl Laboratories), p21 and NOXA (1:250, EMD Millipore), DR5, FADD, cleaved caspase 3, cleaved caspase 8, cleaved PARP, and LC3B (1:1000, Cell Signaling), and β-actin (1:10000, Sigma).
(§2) Proteins were isolated using NP40 Lysis Buffer (20 mmol/L Tris-HCl (pH 7.4), 150 mmol/L NaCl, 5 mmol/L EDTA, 50 mmol/L NaF, 1 mmol/L glycerophosphate, 5 mmol/L Na4P2O7, 0.5% NP40, and complete protease inhibitor cocktail (Roche)) and electrophoresed through 4-12% SDS-PAGE followed by semi-dry transfer to PVDF membranes. The PVDF membranes were incubated with different antibodies including p21 (OP64-100UG, EMD Millipore (world wide web at emdmillipore.com/US/en/product/Antip21WAF1-(Ab-1)-Mouse-mAb-(EA10), EMD_BIO-OP64)), PUMA (12450S, Cell Signaling Technology, world wide web at cellsignal.com/products/primary-antibodies/puma-d30c10-rabbit-mab/12450), DR5 (3696S, Cell Signaling Technology, world wide web at cellsignal.com/products/primary-antibodies/dr5-antibody/3696?N=4294956287&Ntt=3696s&fromPage=plp& requestid=541668), p53(sc-126, Santa Cruz, world wide web at scbt.com/scbt/fr/product/p53-antibody-do-1), and RAN (610341, BD Transduction Laboratories, world wide web at bdbiosciences.com/us/reagents/research/antibodies-buffers/cell-biologyreagents/cell-biology-antibodies/purified-mouse-anti-ran-20ran/p/610341) in blocking buffer at 4° C. overnight. Bound antibody will be detected using IRDye secondary antibodies (LI-COR Biosciences,) in Odyssey blocking buffer for 1 hour then imaged using the ODYSSEY infrared imaging system.
Background: A western blot detects proteins with antibodies after separation by electrophoresis.

Data set [2] has as its system p53 pathway proteins in SW480 cells. Nature of the data set: Western blot of p53, p53 targets, apoptosis and autophagy markers. Format: cell-based, human. To be noted: for Noxa protein expression: SW80 cells, 24 hours. The protocol: as §1, §2
Data set [3] relates to cell cycle G2 checkpoint. Put plainly: propidium iodide staining cell cycle analysis. In kind it is cell-based. To be noted: 24 hour treatment, alone and with etoposide. Here is the method:
Referring to FIG. 22 (panels A-F), propidium iodide staining cell cycle analysis for 24 hour treatment with DMSO (panel A), CB002 (panel B), CB002 and etoposide (panel C), etoposide (panel D), caffeine (panel E), and caffeine and etoposixe (panel F). […] The deregulation of the G2 checkpoint as a mechanism by caffeine prevents […] tumor cells that are treated with DNA damaging drugs, such as etoposide, from arresting to have time to repair, and thus sensitizes cancer cells to cell death.

Data set [4] concerns SW480 cells. Nature of the data set: CellTiter-Glo luminescent cell viability assay. Format: cell-based, human. Here is the method: Cells were seeded in 96-well plates at a density of 5×10^3 cells per well. 20 μL of CellTiter-Glo® Reagent was added directly to the wells, following the manufacturer's protocol, and bioluminescence signal was determined using an IVIS imaging system.
Cell lines at a concentration of 4×10^3 cells/well were seeded out on an opaque 96-well plate and treated with CB002 and Analog 11 in ranging doses starting from 200 μmol/L with DMSO controls. At 72 hours after treatment, cells were mixed with 30 μL Cell Titer-Glo reagent and after ten minutes of room temperature incubation were imaged using IVIS imaging system (Xenogen).
To begin establishing the potential of CB002 as a candidate therapeutic agent, its therapeutic index was determined by treating cancer (DLD-1, SW480, and RXF393) and normal (WI38 and MRC5) cell lines with concentrations of CB002 ranging from 0-500 μM for a period of 72 hours and assessing cell viability by the CellTiter-Glo® luminescence assay (see, FIG. 2). CB002 has a significant therapeutic index among the cells tested.
On the technique in general: ATP-based viability assays read luminescence as a measure of living cells.

In data set [5] the test system is 8226 cells. Put plainly: combination treatment with bortezomib, combination index (CompuSyn). In kind it is cell-based. To be noted: 48 hours, 0-100 nM Bortezomib with 0-200 μM analog. The protocol:
Referring to FIG. 21 (panels A and B), 3×10^4 cells/well of 8226 cells were seeded in a 96-well plate. The cells were treated for 48 hours with a combination of 0-100 nM Bortezomib with 0-200 μM Analog 4 (see, panel A) and 0-100 nM Bortezomib with 0-200 μM Analog 11 (see, FIG. 21, panel B). CompuSyn software was used to analyze the combination index of both drugs.

Data set [6] has as its system Noxa in 8226 bortezomib resistant multiple myeloma cell line. Nature of the data set: Western blot of Noxa. To be noted: 25 μM Analog 4, 100 μM Analog 11. In kind it is cell-based. Here is the method: Referring to FIG. 20 (panel C), 1×10^6 cells/well were seeded in a 12-well plate. 8226 parental and resistant multiple myeloma cell lines were treated with 100 μM CB002, 25 μM Analog 4, or 100 μM Analog 11.

In data set [7] the test system is MM1S Bortezomib resistant cells. Put plainly: Cell Titer-Glo cell viability with bortezomib. Format: cell-based. To be noted: 25 μM Analog 4. Here is the method:
Referring to FIG. 21 (panel C), 3×10^4 cells/well of MM1S parental and Bortezomib MM1S resistant cells were seeded in a 96-well plate. Cell viability was determined by the Cell Titer-Glo® Assay.

The subject of data set [8] is WI38 normal cells. Put plainly: apoptosis assay, sub-G1 analysis (propidium iodide, flow cytometry). The following applies: 25 μM, 48 hours. Format: cell-based, human. Here is the method:
(§3) Apoptotic cells were quantified by sub-G1 analysis. Cells were seeded at a density of 2.5×10^5 to 5×10^5 in a 6-well plate and treated for 48-72 hours. After treatment, adherent cells were trypsinized and collected along with floating cells, washed with PBS and fixed in 70% ethanol. Cells were then incubated in a Phosphate-citric acid buffer (0.2 M Na2HPO4+0.1 M Citric Acid, pH 7.8) at room temperature for 5 minutes, spun down and resuspended for staining with 50 μg/mL propidium iodide (PI) in the presence of 250 μg/mL pancreatic ribonuclease (RNase A). Sub-G1 analyses were performed using an Epics Elite Epics flow cytometer (Coulter-Beckman).
(§4) Cells were seeded out at 1×10^6 cells/well on six well plates and treated with CB002 and Analog 11 at ranging doses with DMSO controls. Cells were harvested after 72 hours of treatment, all cells including floating cells were fixed with ethanol and stained with Propidium Iodide and then analyzed using Epics Elite flow cytometer to measure the DNA content of the stained cells.

The subject of data set [9] is SW480 cells. Described as above. Format: cell-based, human. To be noted: 25 μM, 48 hours. Here is the method:
as §3, §4

In the case of `Cn1c(=O)c2c(ncn2C)n(C)c1=O` [caffeine, reference compound], the Noxa protein expression result in [1] and in [2] was “dis not induce Noxa expression” in each case. Further, in [3], the “effect on cell cycle G2 checkpoint” value is recorded as “can deregulate the cell cycle G2 checkpoint”.

For `O=c1[nH]cc(F)c(=O)[nH]1` [Analog 5-FU, 5-fluorouracil, reference compound], the “toxicity (cell viability reduction), 5-FU versus CPT-11” value in data set [4] (72 hours, ascending doses) is given as “greater toxicity”.

Take `Cn1c(=O)c2[nH]c(Nc3cccc(C(F)(F)F)c3)nc2n(C)c1=O` [Analog 4]: the “synergy with Bortezomib (combination index)” value in data set [5] was “synergyze the most with Bortezomib”. Also, in data set [4] (Cell Titer-Glo, serial dilution), the “IC50 ranking among CB002 analogs” value is listed as “most potent compound”. Further, the Noxa expression entry in [6] is recorded as “able to induce Noxa expression”; in [2] (24 hour, 100 μM CB002, 25 NM Analog 4, 100 μM Analog 11) it was “Induction of Noxa expression”. Moreover, the “sensitization to Bortezomib (cell viability)” value in data set [7] was “able to sensitize MM1S resistant cells to Bortezomib treatment”. Also, the “apoptosis by sub-G1 content” value is “not normal human fibroblast WI38 cells” in [8] and “underwent apoptosis” in data set [9]. Further, the “expression of DR5, Noxa and cleaved Parp” value in data set [2] (12 or 25 μM, 16 and 24 hours) was “increased expression of DR5, Noxa, and cleaved Parp”.

As for `Cn1c(=O)c2[nH]cnc2n(C)c1=O` [theophylline, reference compound], the Noxa protein expression entry in [1] and in data set [2] was “dis not induce Noxa expression” each time.

On to `CC(=O)CCCCn1c(=O)c2c(ncn2C)n(C)c1=O` [pentoxifylline, reference compound], for which the Noxa protein expression result in [1] and in [2] was “dis not induce Noxa expression” in each case.
